Results on one molecule are retold here after PMC10578927, “An unconventional gatekeeper mutation sensitizes inositol hexakisphosphate kinases to an allosteric inhibitor” (eLife, 2023).

For orientation: IC50 means the concentration that inhibits the measured activity by half. Read a low IC50 as inhibition by little substance.

This assay deals with T1, IP6KA^wt (Entamoeba histolytica, UniProt N9UNA8).
T1 sequence (N9UNA8 1-270): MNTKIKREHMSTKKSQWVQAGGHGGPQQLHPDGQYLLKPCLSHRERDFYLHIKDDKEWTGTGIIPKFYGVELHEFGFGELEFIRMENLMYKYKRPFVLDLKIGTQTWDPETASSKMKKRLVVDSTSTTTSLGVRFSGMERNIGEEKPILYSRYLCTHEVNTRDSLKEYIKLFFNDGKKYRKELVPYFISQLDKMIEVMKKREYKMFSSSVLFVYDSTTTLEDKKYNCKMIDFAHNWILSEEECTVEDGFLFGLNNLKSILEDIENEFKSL
Briefly: NMR activity assay for EhIP6KA constructs. It counts as biochemical. The protocol: The NMR assay for EhIP6KA activity was performed similarly as described before ([Harmel et al., 2019]) with slight alterations. Enzyme assays were performed in D2O in a total volume of 150 µl containing 20 mM MES pH* 6.4, 50 mM NaCl, 6 mM MgCl2, 1 mM ATP, 0.2 mg/ml BSA, 1 mM DTT, 5 mM creatine phosphate, and 1 U/ml creatine kinase (ATP-regenerating system) and 50 nM kinase if not otherwise stated. MES, NaCl, and BSA were prepared as buffer A and DTT and creatine phosphate as buffer B in D2O and were adjusted to pH* 6.4, respectively. If applicable, inhibitor was added as a DMSO-d6 stock in a twofold dilution series at a final DMSO concentration of 1% if not otherwise mentioned. Otherwise, DMSO-d6 was added to the same percentage. The samples were equilibrated at 37°C for 3 min and the reaction initiated by adding 100 µM [^13C6]-InsP6. The reaction was quenched with 400 µl quenching solution (20 mM EDTA pD 6.0, 68.75 mM NaCl) and transferred into an NMR tube before being measured on a Bruker […] 600 PLUS with an NMR pulse program developed previously ([Harmel et al., 2019]).

In turn, `O=C(O)c1ccc2c(c1)C(=O)N(c1ccc(-c3nc4ccc(N5C(=O)c6ccc(C(=O)O)cc6C5=O)cc4[nH]3)cc1)C2=O` [FMP-201300] registered a concentration for half-maximal inhibition (IC50) of 5.82 µM.
